# US20190153024A1, “NOVEL SALTS AND POLYMORPHS OF SCY-078” (priority 2015, published 2019)
# Tests used:
# [1] = Chemical and physical stability of SCY-078 salts on storage (25° C./60% RH, 40° C./75% RH, 60° C.); format: physicochemical
# Source text: For all compounds tested other than the trifluoroacetate salts (Type A and B) and the HCl Type I and II salts, the conditions and parameters used for measuring solubility are shown in Table 2A and for measuring stability are showing in Table 3A. The conditions and parameters used for the solubility of the trifluoroacetate salts (Type A and B) and the HCl Type I and II salts are shown in Table 2B and for stability are shown in Table 3B.
# [2] = Dynamic Vapor Sorption (DVS) water uptake; format: physicochemical; conditions: for solid form by XRPD after DVS: after DVS experiment
# Procedure: Dynamic Vapor Sorption (DVS)—The term “DVS” means the procedure described in below. The relative humidity at 25° C. was calibrated against deliquescence point of LiCl, Mg(NO3)2 and KCl.
# The DVS of SCY-078 salts were tested according to the above method, using a 10-20 mg sample size. The DVS was measured using a Surface Measurement Systems (SMS) DVS Intrinsic.
# [3] = pH value of saturated SCY-078 salt solutions in water; format: physicochemical; conditions: saturated salt solution in H2O, room temperature; for pH 1 hr: equilibrated 1 hour; for pH 24 hrs: equilibrated 24 hours
# Procedure: To test the pH, a solution of each compound was equilibrated at room temperature using a rolling incubator (25 rpm) for 1 hour and 24 hours before measurement.
# [4] = Kinetic solubility of trifluoroacetate Types A and B and HCl Type I (alternative procedure: SGF, FaSSIF and FeSSIF alternative media, acetate pH 5.5, phosphate pH 6.0 alternative media); conditions: for Form change: residual solid by XRPD
# [5] = Solid form stability on storage under ambient conditions; format: physicochemical; conditions: 2 days
# Procedure: SCY-078 Citrate Type E: SCY-078 citrate Type E was obtained by drying a metastable solvate SCY-078 citrate Type R from MeOH/IPAc.
# SCY-078 Citrate Type M: SCY-078 citrate Type M was obtained by storing SCY-078 citrate Type E in ambient conditions for 2 days. […] (onset temperatures) (FIG. 58). […] (FIG. 58).
# SCY-078 Trifluoroacetate Type A is highly crystalline as shown in the XRPD (FIG. 85). […] The molar ratio of trifluoroacetate Type A (acid: freebase) was determined to be 1:1 via HPLC-IC confirmation.
# [6] = Physical and chemical stability of trifluoroacetate Types A and B and HCl Type I for 1, 2, 4 and 8 weeks; format: physicochemical
# [7] = Form change of trifluoroacetate on storage at varying relative humidity; format: physicochemical; conditions: storage for 24 hours
# Procedure: To investigate transition relationship of trifluoroacetate Type A and Type B, both samples were stored in chambers with varying relative humidity to monitor any form change. […] Varying temperature (VT)-XRPD of trifluoroacetate Type A was performed.
# [8] = 25° C./60% RH, open dish, 1 week
# [9] = 40° C./75% RH, open dish, 1 week
# [10] = 25° C./60% RH (uncapped), 1 week
# [11] = 25° C./60% RH (uncapped), 2 weeks
# [12] = 25° C./60% RH (uncapped), 4 weeks
# [13] = 25° C./60% RH (uncapped), 8 weeks
# [14] = 40° C./75% RH (uncapped), 1 week
# [15] = 40° C./75% RH (uncapped), 2 weeks
# [16] = 40° C./75% RH (uncapped), 4 weeks
# [17] = 40° C./75% RH (uncapped), 8 weeks
smiles,measurement,setting,value
CC(C)[C@@H](C)[C@@]1(C)CC[C@]2(C)[C@H]3CC[C@@H]4[C@@]5(COC[C@]4(C)[C@@H](OC[C@](C)(N)C(C)(C)C)[C@H](n4ncnc4-c4ccncc4)C5)C3=CC[C@@]2(C)[C@@H]1C(=O)O.O=C(O)CC(O)(CC(=O)O)C(=O)O [SCY-078 citrate Type A],time stable when stored,[1]; 25° C. and 60% relative humidity,at least 1 week
same,Impurity % by HPLC,[1]; [8],0.09%
same,time stable when stored,[1]; 40° C. and 75% relative humidity,at least 1 week
same,Impurity % by HPLC,[1]; [9],0.10%
same,time stable when stored,[1]; 60° C.,at least 1 week
same,Impurity % by HPLC,"[1]; 60° C., closed dish, 1 week",0.17%
same,Impurity % by HPLC,[1]; Initial,0.34%
same,solid form by XRPD after DVS,[2],No form change
same,pH 1 hr,[3],3.5
same,pH 24 hrs,[3],3.8
CC(C)[C@@H](C)[C@@]1(C)CC[C@]2(C)[C@H]3CC[C@@H]4[C@@]5(COC[C@]4(C)[C@@H](OC[C@](C)(N)C(C)(C)C)[C@H](n4ncnc4-c4ccncc4)C5)C3=CC[C@@]2(C)[C@@H]1C(=O)O.O=C(O)/C=C/C(=O)O [SCY-078 fumarate Type A],Impurity % by HPLC,[1]; [8],0.09%
same,Impurity % by HPLC,[1]; [9],0.10%
same,Impurity % by HPLC,"[1]; 60° C., closed dish, 1 week",0.10%
same,Impurity % by HPLC,[1]; Initial,0.12%
same,water uptake (DVS),"[2]; 25° C., 80% RH",2.5%
same,solid form by XRPD after DVS,[2],no form change
same,pH 1 hr,[3],4.4
same,pH 24 hrs,[3],3.8
CC(C)[C@@H](C)[C@@]1(C)CC[C@]2(C)[C@H]3CC[C@@H]4[C@@]5(COC[C@]4(C)[C@@H](OC[C@](C)(N)C(C)(C)C)[C@H](n4ncnc4-c4ccncc4)C5)C3=CC[C@@]2(C)[C@@H]1C(=O)O.O=C(O)C(F)(F)F [SCY-078 Trifluoroacetate Type A],form change of residual solid in FaSSIF alternative media,"[4]; FaSSIF alternative media, ambient temperature, listed as trifluoroacetate Type A",no form change was observed
same,form change of residual solid in FeSSIF alternative media,"[4]; FeSSIF alternative media, ambient temperature, listed as Trifluoroacetate Type A",converted to Type B
same,form change of residual solid in SGF,"[4]; SGF, ambient temperature, listed as trifluoroacetate Type A",no form change was observed
same,solubility in acetate buffer (comparison),"[4]; acetate buffer pH 5.5, ambient temperature, 4 hr and 24 hrs",higher solubility
same,form change of residual solid in acetate buffer,"[4]; acetate buffer pH 5.5, ambient temperature, listed as Trifluoroacetate Type A",no form change was observed
same,solubility trend in FeSSIF alternative media,[4]; after an hour,decreasing solubility
same,solubility in phosphate (pH 6.0) alternative media (comparison),"[4]; phosphate (pH 6.0) alternative media, ambient temperature, 4 hr and 24 hrs",lower solubility
same,form change of residual solid in phosphate (pH 6.0) alternative media,"[4]; phosphate (pH 6.0) alternative media, ambient temperature, listed as Trifluoroacetate Type A",firstly converted to Type B at 4 hrs and back to Type A at 24 hrs
same,solid form stability at ambient conditions,[5],converted to Type B
same,physical and chemical stability,"[6]; 25° C./60% RH, 40° C./75% RH and 60° C., 8 weeks, listed as trifluoroacetate Type A",physically and chemically stable
CC(C)[C@@H](C)[C@@]1(C)CC[C@]2(C)[C@H]3CC[C@@H]4[C@@]5(COC[C@]4(C)[C@@H](OC[C@](C)(N)C(C)(C)C)[C@H](n4ncnc4-c4ccncc4)C5)C3=CC[C@@]2(C)[C@@H]1C(=O)O.O=C(O)C(F)(F)F [TFA Type B],Form change,"[4]; FeSSIF alternative media, 1 hr",No
same,Form change,"[4]; FeSSIF alternative media, 4 hrs",No
same,Form change,"[4]; FeSSIF alternative media, 24 hrs",No
same,Form change,"[4]; phosphate (pH 6.0) alternative media, 4 hrs",No
same,HPLC purity,[6]; [10],99.9%
same,Solid form,[6]; [10],Type A
same,HPLC purity,[6]; [11],99.9%
same,Solid form,[6]; [11],Type A
same,HPLC purity,[6]; [12],99.9%
same,Solid form,[6]; [12],Type A
same,HPLC purity,[6]; [13],99.9%
same,Solid form,[6]; [13],Type A
same,HPLC purity,[6]; [14],99.9%
same,Solid form,[6]; [14],Type A
same,HPLC purity,[6]; [15],99.9%
same,Solid form,[6]; [15],Type A
same,HPLC purity,[6]; [16],99.9%
same,Solid form,[6]; [16],Type A
same,HPLC purity,[6]; [17],99.9%
same,Solid form,[6]; [17],Type A
same,HPLC purity,"[6]; 60° C. (capped), 1 week",99.9%
same,Solid form,"[6]; 60° C. (capped), 1 week",Type A
same,HPLC purity,"[6]; 60° C. (capped), 2 weeks",99.9%
same,Solid form,"[6]; 60° C. (capped), 2 weeks",Type A
same,HPLC purity,"[6]; 60° C. (capped), 4 weeks",99.9%
same,Solid form,"[6]; 60° C. (capped), 4 weeks",Type A
same,HPLC purity,"[6]; 60° C. (capped), 8 weeks",99.9%
same,Solid form,"[6]; 60° C. (capped), 8 weeks",Type A
same,Initial HPLC purity,[6]; Initial,99.9%
same,Form by XRPD after storage,[7]; Relativity Humidity 0%,Type B
same,Form by XRPD after storage,[7]; Relativity Humidity 22%,Type B
same,Form by XRPD after storage,[7]; Relativity Humidity 97%,Type A
CC(C)[C@@H](C)[C@@]1(C)CC[C@]2(C)[C@H]3CC[C@@H]4[C@@]5(COC[C@]4(C)[C@@H](OC[C@](C)(N)C(C)(C)C)[C@H](n4ncnc4-c4ccncc4)C5)C3=CC[C@@]2(C)[C@@H]1C(=O)O.O=C(O)CC(O)(CC(=O)O)C(=O)O [SCY-078 citrate Type E],solid form stability at ambient conditions,[5],not stable
